{"source": "paper PMC10404681", "about": "“Intrinsic catalytic properties of histone H3 lysine-9 methyltransferases preserve monomethylation levels under low S-adenosylmethionine” (The Journal of Biological Chemistry, 2023)", "key": {"EHMT1 catalytic domain": {"target": "T1, EHMT1 catalytic domain (Homo sapiens, UniProt Q9H9B1)", "T1 construct": "EHMT1 = 982 to 1266; host or cells: Rosetta E. coli", "T1 sequence (Q9H9B1 982-1266)": "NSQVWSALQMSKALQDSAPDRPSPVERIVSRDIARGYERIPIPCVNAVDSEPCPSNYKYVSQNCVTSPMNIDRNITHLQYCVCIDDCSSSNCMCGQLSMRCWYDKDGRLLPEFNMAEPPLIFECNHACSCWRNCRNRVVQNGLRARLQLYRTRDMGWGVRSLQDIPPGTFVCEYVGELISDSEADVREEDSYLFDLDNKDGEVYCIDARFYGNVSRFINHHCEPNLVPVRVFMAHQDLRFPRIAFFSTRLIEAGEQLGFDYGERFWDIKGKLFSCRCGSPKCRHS", "assay": "Radiometric EZ-tip methyltransferase assay, steady-state kinetics, EHMT1", "assay_type": "biochemical, H. sapiens", "conditions": "SAM varied 0.1–100 μM, EHMT1 25 nM, pH 7.9, 30 °C, n = 3, SD", "description": "(§1) The H. sapiens EHMT1 catalytic subunit (Addgene plasmid #51314) and H. sapiens SUV39H2 catalytic subunit (Addgene plasmid #25115) E. coli expression plasmids used in this study were acquired from Addgene, made possible through a gift by Cheryl Arrowsmith. The H. sapiens EHMT2 catalytic subunit E. coli expression plasmid used in this study was provided by the laboratory of Peter W. Lewis at the University of Wisconsin-Madison. All remaining histone methyltransferase expression plasmids were generated for this study and will be made freely available from Addgene.\n(§2) Michaelis-Menten saturation curves were generated under steady-state conditions with the non-titrated component concentration being present at ≥5× KM specific to each enzyme. 1 × 10^5 CPM values were provided by [methyl-^3H] SAM in each reaction. Reaction times and enzyme concentrations were optimized for each HMT to ensure substrate turnover remained below 20%. […] Enzyme concentrations are calculated for the monomeric form. Reactions were incubated at 30 °C for 20 min before quenching with TFA for a final concentration of 2% v/v TFA. […] The eluates were added to 2 ml of Ultima Gold LSC Cocktail (Sigma-Aldrich) and counted on a scintillation counter (PerkinElmer). […]"}, "SUV39H2 catalytic domain": {"target": "T2, SUV39H2 catalytic domain (Homo sapiens, UniProt Q9H5I1)", "T2 construct": "host or cells: Rosetta E. coli", "T2 sequence (Q9H5I1 162-410)": "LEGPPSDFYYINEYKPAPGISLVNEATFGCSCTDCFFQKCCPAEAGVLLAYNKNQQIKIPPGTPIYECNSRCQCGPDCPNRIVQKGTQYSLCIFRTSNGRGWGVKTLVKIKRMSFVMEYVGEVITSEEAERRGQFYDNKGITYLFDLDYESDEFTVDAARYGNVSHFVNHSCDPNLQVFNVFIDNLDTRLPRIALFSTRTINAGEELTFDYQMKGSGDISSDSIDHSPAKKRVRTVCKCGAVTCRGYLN", "assay": "Radiometric EZ-tip methyltransferase assay, steady-state kinetics, SUV39H2", "assay_type": "biochemical, H. sapiens", "conditions": "SAM varied 0.1–100 μM, SUV39H2 25 nM, pH 7.9, 30 °C, n = 3, SD", "description": "as §1, §2"}, "SUV39H1": {"target": "T3, SUV39H1 (Homo sapiens, UniProt O43463)", "T3 construct": "made in house; host or cells: Rosetta E. coli (plasmid generated for this study)", "T3 sequence (O43463 1-412)": "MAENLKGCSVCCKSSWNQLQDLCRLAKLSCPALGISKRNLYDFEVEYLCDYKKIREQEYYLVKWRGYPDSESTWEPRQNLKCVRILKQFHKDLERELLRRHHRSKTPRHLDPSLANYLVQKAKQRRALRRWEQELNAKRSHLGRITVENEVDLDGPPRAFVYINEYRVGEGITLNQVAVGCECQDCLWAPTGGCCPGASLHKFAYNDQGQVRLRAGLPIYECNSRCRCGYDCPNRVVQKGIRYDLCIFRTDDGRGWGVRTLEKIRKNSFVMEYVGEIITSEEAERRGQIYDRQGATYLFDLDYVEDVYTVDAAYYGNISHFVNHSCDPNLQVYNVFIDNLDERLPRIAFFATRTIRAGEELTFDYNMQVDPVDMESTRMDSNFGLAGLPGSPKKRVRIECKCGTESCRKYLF", "assay": "Radiometric EZ-tip methyltransferase assay, steady-state kinetics, SUV39H1", "assay_type": "biochemical", "conditions": "SAM varied 0.1–100 μM, SUV39H1 100 nM, pH 7.9, 30 °C, n = 3, SD", "description": "as §1, §2"}, "EHMT2 catalytic domain": {"target": "T4, EHMT2 catalytic domain (Homo sapiens, UniProt Q96KQ7)", "T4 construct": "EHMT2 = 913 to 1193; made in house; host or cells: Rosetta E. coli (plasmid from the laboratory of Peter W. Lewis)", "T4 sequence (Q96KQ7 913-1193)": "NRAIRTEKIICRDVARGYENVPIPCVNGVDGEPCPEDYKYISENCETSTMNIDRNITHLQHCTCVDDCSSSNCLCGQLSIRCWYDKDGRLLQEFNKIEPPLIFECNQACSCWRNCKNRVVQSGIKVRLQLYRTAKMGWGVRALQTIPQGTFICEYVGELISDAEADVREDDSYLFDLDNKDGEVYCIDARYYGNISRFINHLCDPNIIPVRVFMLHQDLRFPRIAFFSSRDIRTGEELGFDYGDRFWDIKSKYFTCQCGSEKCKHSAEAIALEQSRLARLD", "assay": "Radiometric EZ-tip methyltransferase assay, steady-state kinetics, EHMT2", "assay_type": "biochemical, H. sapiens", "conditions": "SAM varied 0.1–100 μM, EHMT2 25 nM, pH 7.9, 30 °C, n = 3, SD", "description": "as §1, §2"}, "[1]": {"conditions": "fixed H3K9me1 peptide H3(1–17) 50 μM"}, "[2]": {"conditions": "fixed H3K9un peptide H3(1–17) 50 μM"}}, "data": [{"compound": "C[S+](CC[C@H](N)C(=O)[O-])C[C@H]1O[C@@H](n2cnc3c(N)ncnc32)[C@H](O)[C@@H]1O", "note": "(some centres unmarked) [SAM, S-adenosylmethionine]", "values": [{"measurement": "kcat/KM, SAM", "setting": "EHMT1 catalytic domain; [1]", "value": 5000, "unit": "M⁻¹ s⁻¹"}, {"measurement": "kcat/KM, SAM", "setting": "EHMT1 catalytic domain; [2]", "value": 16800, "unit": "M⁻¹ s⁻¹"}, {"measurement": "kcat/KM, SAM", "setting": "SUV39H2 catalytic domain; [1]", "value": 6000, "unit": "M⁻¹ s⁻¹"}, {"measurement": "kcat/KM, SAM", "setting": "SUV39H2 catalytic domain; [2]", "value": 14300, "unit": "M⁻¹ s⁻¹"}, {"measurement": "kcat/KM, SAM", "setting": "SUV39H1; [1]", "value": 500, "unit": "M⁻¹ s⁻¹"}, {"measurement": "kcat/KM, SAM", "setting": "SUV39H1; [2]", "value": 1670, "unit": "M⁻¹ s⁻¹"}, {"measurement": "kcat/KM, SAM", "setting": "EHMT2 catalytic domain; [1]", "value": 2170, "unit": "M⁻¹ s⁻¹"}, {"measurement": "kcat/KM, SAM", "setting": "EHMT2 catalytic domain; [2]", "value": 6670, "unit": "M⁻¹ s⁻¹"}]}]}
